Measurements reported in patent publication US20080139520A1, “Altering cholesterol and fat uptake by novel allosteric inhibitors of pancreatic phospholipase A2” (priority 2006, published 2008).

What was measured:
[1] = molecular target: T1, PLA2 K87W/W3F (Sus scrofa, UniProt P00592, K109W/W25F); experiment: Bile salt binding by Trp emission, K87W/W3F PLA2; set-up: species or system pig; settings: read-out: KEB
T1 construct: made in house
Procedure: (§1) Fluorescence emission spectrum or time course of the intensity change from tryptophan or the resonance energy transfer probe TMA-DPH were measured in the ratio mode on SLM-Aminco AB2 in a 1 cm cuvette [31, 32] in 1.6 ml stirred buffer containing 1 or 2 μM PLA2 in 10 mM Tris, 5 mM CaCl2 and 20 mM NaCl at pH 8.0 and 24° C. The slit-widths were 4 nm with excitation at 280.
(§2) As shown in [45], the binding of decylsulfate to the R site is accompanied by a modest increase in the emission intensity from Trp-3. […] As summarized in Table 2, the value of KEB depends on the position of Trp, although Hill coefficient remains 1. […] Note that KEB for the EB complex of ΔPLA2 is about 7-fold larger than that for PLA2.

[2] = molecular target: T2, PLA2 R6W/W3F (Sus scrofa, UniProt P00592, R28W/W25F); experiment: Bile salt binding by Trp emission, R6W/W3F PLA2; set-up: species or system pig; settings: read-out: KEB
T2 construct: made in house
Procedure: as §1, §2

[3] = molecular target: T3, WT (wild type) pig PLA2 (Sus scrofa, UniProt P00592); experiment: PLA2 catalyzed hydrolysis of sonicated DMPC vesicles with added bile salt (pH-stat); format: biochemical
T3 construct: made in house
Procedure: Aqueous dispersion of phospholipid was sonicated in a bath type sonicator. Virtually transparent suspension was annealed for at least 4 hours at room temperature before use. Reaction progress for the PLA2 catalyzed hydrolysis of sonicated DMPC (1 mM) vesicles was measured by pH-stat titration (Radiometer) with 1 mM 2-aminopropanediol in 4 ml reaction buffer containing 5 mM CaCl2 for DMPC (or 0.5 mM for DMPM), 1 mM NaCl, […] atmosphere. Reaction was initiated by adding 0.1 μg enzyme in 1-10 μl solution. The pH stat method was also used for monitoring the rate of hydrolysis of DMPM (0.4 mM) vesicles in the presence of polymyxin [27-29], or of the mixed-micelles of POPC with bile salts in 1:2 ratio [13, 30].
Delay before the onset of the stationary phase of the PLA2 catalyzed reaction progress for the hydrolysis of zwitterionic phospholipids has been extensively characterized. […] The apparent rates in FIG. 3 were obtained from the initial slopes of such reaction progress during which <5% of the total substrate is hydrolyzed.
The CMC of the bile salts used in this study range between 0.8 to 5 mM.

[4] = molecular target: T4, PLA2 (Sus scrofa, UniProt P00592); experiment: Isothermal calorimetric titration of PLA2 with bile salt; format: binding, pig; settings: ITC
T4 construct: made in house
Procedure: ITC titration of PLA2 with <1 mM (below the CMC) bile salt stock solution was carried out on the Microcal calorimeter (model VP-itc) with cell volume of 1.42 ml with stirring at 300 rpm. Successive injections were made every 5 min. Standard software was used for the peak integration. The heat change with the internal calibration associated with the dilution of the titrant in the […] was subtracted from the heat change obtained by the injection of the bile salt in the presence of 8.5 μM PLA2. The net heat change per injection in the presence of PLA2 was integrated to obtain the total heat change as a function of the total added amphiphile concentration.

[5] = molecular target: PLA2 R6M (Sus scrofa, UniProt P00592, R28M); experiment: Bile salt binding by Trp emission, R6M PLA2; set-up: species or system pig; settings: read-out: KEB
Procedure: as §1, §2

[6] = molecular target: proPLA2 (Sus scrofa, UniProt P00592); experiment: Bile salt binding by Trp emission, proPLA2; set-up: species or system pig; settings: read-out: KEB
Procedure: as §1, §2

T3 sequence (P00592 23-146): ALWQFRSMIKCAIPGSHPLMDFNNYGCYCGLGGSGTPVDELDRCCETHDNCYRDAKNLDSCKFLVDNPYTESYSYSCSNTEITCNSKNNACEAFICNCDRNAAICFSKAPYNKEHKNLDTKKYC
T4 sequence (P00592 23-146): as above
T1 sequence (P00592 23-146 W25F/K109W): as the sequence (P00592 23-146) above, with W3F, K87W counted along it
T2 sequence (P00592 23-146 W25F/R28W): as the sequence (P00592 23-146) above, with W3F, R6W counted along it
proPLA2, sequence (P00592 16-146 limits assumed): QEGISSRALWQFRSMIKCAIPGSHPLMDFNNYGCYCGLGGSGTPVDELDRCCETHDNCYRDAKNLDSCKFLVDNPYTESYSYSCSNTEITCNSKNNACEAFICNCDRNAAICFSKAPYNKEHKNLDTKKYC
PLA2 R6M, sequence (P00592 23-146 R28M): as the sequence (P00592 23-146) above, with R6M counted along it

SMILES: C[C@H](CCC(=O)NCCS(=O)(=O)O)[C@H]1CC[C@H]2[C@@H]3[C@H](O)C[C@@H]4C[C@H](O)CC[C@]4(C)[C@H]3CC[C@]12C [TCDOC, taurochenodeoxycholate]
- Kd [1]: 200 µM
- Kd [2]: 50 µM
- concentration at which the rate increase and decrease is complete ([3]; 1 mM DMPC vesicles): < 0.12 mM
- peak rate of hydrolysis of DMPC vesicles ([3]; 1 mM DMPC, 24° C., cholate above 0.04 mM): 80 s⁻¹
- bile salt concentration at the maximum rate ([3]; 16° C., 1 mM DMPC): 0.013 mM
- bile salt concentration at the maximum rate ([3]; 29° C., 1 mM DMPC): 0.13 mM
- effect of bile salt on the rate of hydrolysis (monophasic/biphasic) ([3]; DMPC vesicles, pancreatic PLA2): a rate increase and then a rate decrease at higher concentration
- S ([4]; 8.5 μM PLA2): 3.5 cal/mole/deg
- Hill coefficient ([4]; single hyperbola fit): 1
- Kd ([4]; KEB, 8.5 μM PLA2): 9 µM
- Kd [5]: 150 µM
- Kd [6]: 27 µM
